Assay results as given in US20160237044A1, “SUBSTITUTED PHENYLALANINE DERIVATIVES” (BAYER PHARMA AKTIENGESELLSCHAFT, priority 2013, published 2016).
Structures can show the parent of a compound that is named as a salt. Where two headings read alike, the source gives them in different places.

Legend:
plasma = test: Determination of anticoagulatory activity: activated partial thromboplastin time (aPTT) in plasma; assay type: biochemical, human; conditions: concentration of test substance which brings about a 1.5-fold extension of the aPTT, C.K. Prest kit, 37° C.
Protocol: a.4) Determination of Anticoagulatory Activity
The anticoagulatory activity of the test substances is determined in vitro in human and animal plasma (for example mouse, rat, rabbit, pig and dog plasma). To this end, blood is drawn off in a mixing ratio of sodium citrate/blood of 1:9 using a 0.11 molar sodium citrate solution as receiver. Immediately after the blood has been drawn off, it is mixed thoroughly and centrifuged at about 4000 g for 15 minutes. The supernatant is pipetted off.
The activated partial thromboplastin time (aPTT) is determined in the presence of varying concentrations of test substance or the corresponding solvent using a commercial test kit (C.K. Prest from Diagnostica Stago). The test compounds are incubated with the plasma and the PTT reagent (cephalin, kaolin) at 37° C. for 3 minutes. Coagulation is then started by addition of a 25 mM aqueous calcium chloride solution, and the time when coagulation occurs is determined. The concentration of test substance which brings about a 1.5-fold extension of the aPTT is determined.

human factor XIa = molecular target: T1, human factor XIa (Homo sapiens, UniProt P03951); test: Measurement of FXIa inhibition (fluorogenic peptide substrate Boc-Glu(OBzl)-Ala-Arg-AMC); assay type: biochemical
T1 construct: purchased Kordia
Protocol: a.1) Measurement of FXIa Inhibition
The factor XIa inhibition of the substances according to the invention is determined using a biochemical test system which utilizes the reaction of a peptidic factor XIa substrate to determine the enzymatic activity of human factor XIa. Here, factor XIa cleaves from the peptic factor XIa substrate the C-terminal aminomethylcoumarin (AMC), the fluorescence of which is measured. The determinations are carried out in microtitre plates.
In each case 1 μl of the diluted substance solutions is placed into the wells of white microtitre plates from Greiner (384 wells). […] After 15 min of incubation, the enzyme reaction is started by addition of 20 μl of the factor XIa substrate Boc-Glu(OBzl)-Ala-Arg-AMC dissolved in assay buffer (10 μM in assay buffer) from Bachem, the mixture is incubated at room temperature (22° C.) for 30 min and fluorescence is then measured (excitation: 360 nm, emission: 460 nm). The measured emissions of the test batches with test substance are compared to those of control batches without test substance (only dimethyl sulphoxide instead of test substance in dimethyl sulphoxide), and IC50 values are calculated from the concentration/activity relationships.

[1] = factor XIa from Kordia, 15 min preincubation, 30 min at 22° C., fluorescence, read-out: IC50

T1 sequence (P03951 388-625 limits assumed): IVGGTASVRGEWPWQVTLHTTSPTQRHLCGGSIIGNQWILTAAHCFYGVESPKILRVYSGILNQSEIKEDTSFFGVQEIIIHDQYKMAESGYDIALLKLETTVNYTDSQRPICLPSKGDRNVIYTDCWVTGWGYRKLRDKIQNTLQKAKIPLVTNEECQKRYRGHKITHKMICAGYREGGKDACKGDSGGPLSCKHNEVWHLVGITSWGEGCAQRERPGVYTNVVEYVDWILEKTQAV
T1 sequence (P03951 19-387 partner limits assumed): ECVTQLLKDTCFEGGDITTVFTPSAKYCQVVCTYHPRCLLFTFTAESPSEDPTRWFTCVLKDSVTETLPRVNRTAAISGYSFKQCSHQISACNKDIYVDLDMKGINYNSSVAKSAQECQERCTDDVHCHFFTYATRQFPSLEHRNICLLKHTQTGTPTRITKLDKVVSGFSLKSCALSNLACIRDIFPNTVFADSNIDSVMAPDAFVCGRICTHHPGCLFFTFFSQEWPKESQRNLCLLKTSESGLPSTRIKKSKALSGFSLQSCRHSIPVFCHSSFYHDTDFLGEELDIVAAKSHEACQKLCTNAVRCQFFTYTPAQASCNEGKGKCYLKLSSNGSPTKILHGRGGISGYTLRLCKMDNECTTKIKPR

Row | Compound | IC50 (human factor XIa; [1]) | Concentration for 1.5-fold aPTT extension (plasma) | IC50 (human factor XIa)
1 | NC[C@H]1CC[C@H](C(=O)N[C@@H](Cc2ccc(-c3ccc(N4CCNCC4)cc3)cc2)C(=O)Nc2ccc(-c3nn[nH]n3)cc2)CC1 [Example 2, trans-4-(Aminomethyl)-N-[(2S)-1-oxo-3-[4′-(piperazin-1-yl)biphenyl-4-yl]-1-{[4-(2H-tetrazol-5-yl)phenyl]amino}propan-2-yl]cyclohexanecarboxamide hydrochloride] | 4.3 nM |  | 
2 | COCCOc1ccc(-c2ccc(C[C@H](NC(=O)[C@H]3CC[C@H](CN)CC3)C(=O)Nc3ccc(-c4nn[nH]n4)cc3)cc2)cc1 [Example 3, trans-4-(Aminomethyl)-N-[(2S)-3-[4′-(2-methoxyethoxy)biphenyl-4-yl]-1-oxo-1-{[4-(2H-tetrazol-5-yl)phenyl]amino}propan-2-yl]cyclohexanecarboxamide hydrochloride] | 8.1 nM |  | 
3 | CN1CCN(c2ccc(-c3ccc(C[C@H](NC(=O)[C@H]4CC[C@H](CN)CC4)C(=O)Nc4ccc(-c5nn[nH]n5)cc4)cc3)cc2)CC1 [Example 4, trans-4-(Aminomethyl)-N-[(2S)-3-[4′-(4-methylpiperazin-1-yl)biphenyl-4-yl]-1-oxo-1-{[4-(2H-tetrazol-5-yl)phenyl]amino}propan-2-yl]cyclohexanecarboxamide hydrochloride] | 18 nM |  | 
4 | NC[C@H]1CC[C@H](C(=O)N[C@@H](Cc2ccc(-c3ccc(N4CCOCC4)cc3)cc2)C(=O)Nc2ccc(-c3nn[nH]n3)cc2)CC1 [Example 5, trans-4-(Aminomethyl)-N-[(2S)-3-[4′-(morpholin-4-yl)biphenyl-4-yl]-1-oxo-1-{[4-(2H-tetrazol-5-yl)phenyl]amino}propan-2-yl]cyclohexanecarboxamide hydrochloride] |  |  | 5.7 nM
5 | NC[C@H]1CC[C@H](C(=O)N[C@@H](Cc2ccc(-c3ccc(N4CCNCC4)cc3)cc2)C(=O)Nc2ccc(-c3noc(=O)[nH]3)cc2)CC1 [Example 6, trans-4-(Aminomethyl)-N-{(2S)-1-oxo-1-{[4-(5-oxo-4,5-dihydro-1,2,4-oxadiazol-3-yl)phenyl]amino}-3-[4′-(piperazin-1-yl)biphenyl-4-yl]propan-2-yl}cyclohexanecarboxamide hydrochloride] | 24 nM |  | 
6 | COC(=O)c1ccc(-c2ccc(C[C@H](NC(=O)[C@H]3CC[C@H](CN)CC3)C(=O)Nc3ccc(-c4nn[nH]n4)cc3)cc2)cc1 [Example 7, Methyl 4′-[(2S)-2-({[trans-4-(aminomethyl)cyclohexyl]carbonyl}amino)-3-oxo-3-{[4-(2H-tetrazol-5-yl)phenyl]amino}propyl]biphenyl-4-carboxylic acid hydrochloride] | 3.6 nM |  | 
7 | NC[C@H]1CC[C@H](C(=O)N[C@@H](Cc2ccc(-c3ccc(S(=O)(=O)NC4CCNCC4)cc3C(F)(F)F)cc2)C(=O)Nc2ccc(-c3nn[nH]n3)cc2)CC1 [Example 8, trans-4-(Aminomethyl)-N-[(2S)-1-oxo-3-[4′-(piperidin-4-ylsulphamoyl)-2′-(trifluoromethyl)biphenyl-4-yl]-1-{[4-(2H-tetrazol-5-yl)phenyl]amino}propan-2-yl]cyclohexanecarboxamide hydrochloride] | 1 nM | 0.08 µmol/L | 
8 | Cc1cc(S(=O)(=O)N[C@@H]2CCNC2)ccc1-c1ccc(C[C@H](NC(=O)[C@H]2CC[C@H](CN)CC2)C(=O)Nc2ccc(-c3nn[nH]n3)cc2)cc1 [Example 16, trans-4-(Aminomethyl)-N-[(2S)-3-{2′-methyl-4′-[(3R)-pyrrolidin-3-ylsulphamoyl]biphenyl-4-yl}-1-oxo-1-{[4-(2H-tetrazol-5-yl)phenyl]amino}propan-2-yl]cyclohexanecarboxamide hydrochloride] | 1.3 nM | 0.11 µmol/L | 
9 | CCN(CC)S(=O)(=O)c1ccc(-c2ccc(C[C@H](NC(=O)[C@H]3CC[C@H](CN)CC3)C(=O)Nc3ccc4c(=O)[nH][nH]c4c3)cc2)c(C)c1 [Example 17, trans-4-(Aminomethyl)-N-{(2S)-3-[4′-(diethylsulphamoyl)-2′-methylbiphenyl-4-yl]-1-oxo-1-[(3-oxo-2,3-dihydro-1H-indazol-6-yl)amino]propan-2-yl}cyclohexanecarboxamide hydrochloride] | 3.5 nM | 0.13 µmol/L | 
10 | CNS(=O)(=O)c1ccc(-c2ccc(C[C@H](NC(=O)[C@H]3CC[C@H](CN)CC3)C(=O)Nc3ccc4c(=O)[nH][nH]c4c3)cc2)c(C)c1 [Example 18, trans-4-(Aminomethyl)-N-{(2S)-3-[2′-methyl-4′-(methylsulphamoyl)biphenyl-4-yl]-1-oxo-1-[(3-oxo-2,3-dihydro-1H-indazol-6-yl)amino]propan-2-yl}cyclohexanecarboxamide hydrochloride] | 5.4 nM | 0.13 µmol/L | 

Further compounds by falling IC50 (human factor XIa; [1]), results first:

Row | IC50 (human factor XIa; [1]) | Compound | Concentration for 1.5-fold aPTT extension (plasma) | IC50 (human factor XIa)
11 | 8.4 nM | Cc1cc(NC(=O)CNC(=O)CNC(=O)CN)ccc1-c1ccc(C[C@H](NC(=O)[C@H]2CC[C@H](CN)CC2)C(=O)Nc2ccc(-c3nn[nH]n3)cc2)cc1 [Example 9, Glycylglycyl-N-{4′-[(2S)-2-({[trans-4-(aminomethyl)cyclohexyl]carbonyl}amino)-3-oxo-3-{[4-(2H-tetrazol-5-yl)phenyl]amino}propyl]-2-methylbiphenyl-4-yl}glycinamide hydrochloride] |  | 
12 | 3.2 nM | Cc1cc(S(=O)(=O)NC(C)C)ccc1-c1ccc(C[C@H](NC(=O)[C@H]2CC[C@H](CN)CC2)C(=O)Nc2ccc3c(=O)[nH][nH]c3c2)cc1 [Example 14, trans-4-(Aminomethyl)-N-{(2S)-3-[4′-(isopropylsulphamoyl)-2′-methylbiphenyl-4-yl]-1-oxo-1-[(3-oxo-2,3-dihydro-1H-indazol-6-yl)amino]propan-2-yl}cyclohexanecarboxamide hydrochloride] |  | 
13 | 3.1 nM | Cc1cc(S(=O)(=O)N(C)C)ccc1-c1ccc(C[C@H](NC(=O)[C@H]2CC[C@H](CN)CC2)C(=O)Nc2ccc3c(=O)[nH][nH]c3c2)cc1 [Example 13, trans-4-(Aminomethyl)-N-{(2S)-3-[4′-(dimethylsulphamoyl)-2′-methylbiphenyl-4-yl]-1-oxo-1-[(3-oxo-2,3-dihydro-1H-indazol-6-yl)amino]propan-2-yl}cyclohexanecarboxamide hydrochloride] | 0.07 µmol/L | 
14 | 2.3 nM | NC[C@H]1CC[C@H](C(=O)N[C@@H](Cc2ccc(-c3ccc(S(=O)(=O)NCCO)cc3)cc2)C(=O)Nc2ccc(-c3nnc(Cl)[nH]3)cc2)CC1 [Example 19, trans-4-(Aminomethyl)-N-[(2S)-1-{[4-(5-chloro-4H-1,2,4-triazol-3-yl)phenyl]amino}-3-{4′-[(2-hydroxyethyl)sulphamoyl]biphenyl-4-yl}-1-oxopropan-2-yl]cyclohexanecarboxamide hydrochloride] | 0.16 µmol/L | 
15 | 1.9 nM | COC(=O)c1ccc(-c2ccc(C[C@H](NC(=O)[C@H]3CC[C@H](CN)CC3)C(=O)Nc3ccc(-c4nn[nH]n4)cc3)cc2)c(Cl)c1.Cl [Example 11, Methyl 4′-[(2S)-2-({[trans-4-(aminomethyl)cyclohexyl]carbonyl}amino)-3-oxo-3-{[4-(2H-tetrazol-5-yl)phenyl]amino}propyl]-2-chlorobiphenyl-4-carboxylate hydrochloride] | 0.49 µmol/L | 
16 | 1.8 nM | Cc1cc(S(N)(=O)=O)ccc1-c1ccc(C[C@H](NC(=O)[C@H]2CC[C@H](CN)CC2)C(=O)Nc2ccc(-c3nnc(Cl)[nH]3)cc2)cc1 [Example 20, trans-4-(Aminomethyl)-N-[(2S)-1-{[4-(3-chloro-4H-1,2,4-triazol-5-yl)phenyl]amino}-3-(2′-methyl-4′-sulphamoylbiphenyl-4-yl)-1-oxopropan-2-yl]cyclohexanecarboxamide hydrochloride] | 0.18 µmol/L | 
17 | 1.1 nM | Cc1cc(S(=O)(=O)NC2CCNCC2)ccc1-c1ccc(C[C@H](NC(=O)[C@H]2CC[C@H](CN)CC2)C(=O)Nc2ccc(-c3nnn[nH]3)cc2)cc1 [Example 1, trans-4-(Aminomethyl)-N-[(2S)-3-[2′-methyl-4′-(piperidin-4-ylsulphamoyl)biphenyl-4-yl]-1-oxo-1-{[4-(1H-tetrazol-5-yl)phenyl]amino}propan-2-yl]cyclohexanecarboxamide hydrochloride] | 0.1 µmol/L | 
18 | 1.1 nM | Cc1cc(S(=O)(=O)NC2CCNC(C)C2)ccc1-c1ccc(C[C@H](NC(=O)[C@H]2CC[C@H](CN)CC2)C(=O)Nc2ccc(-c3nn[nH]n3)cc2)cc1 (stereo partly drawn) [Example 10, trans-4-(Aminomethyl)-N-[(2S)-3-(2′-methyl-4′-{[(2-methylpiperidin-4-yl]sulphamoyl}biphenyl-4-yl)-1-oxo-1-{[4-(2H-tetrazol-5-yl)phenyl]amino}propan-2-yl]cyclohexanecarboxamide hydrochloride] | 0.1 µmol/L | 
